Experimental data from patent EP1285971B1, “Methods for the phenotypic and genotypic assessment of the drug sensitivity of HIV integrase variants” (Tibotec Pharmaceuticals Ltd., priority 2001, dated 2003).
Where two headings read alike, the source gives them in different places.

Tested on: patient_146514
Assay: microbe, parasite or virus in culture
Type: cell-based, HIV
Conditions: for fold change: fold change in EC50
Experimental: The integrase encoding sequence was amplified from either wildtype HIV-1 (IIIB) or NL4.3 virus, or HXB2D site-directed mutant viruses containing mutations in integrase (such as T66I, S153Y, M154I, or combinations thereof) (Hazuda et al., Science 2000, 287, 646-650), or patient samples. Starting from RNA, extracted from virus supernatant or plasma using the QIAamp® viral RNA extraction kit (Qiagen), cDNA was synthesized by reverse transcription (Expand TM reverse transcriptase, 30 min at 42°C) with the primer 3'EGINT10 (SEQ ID NO 11), followed by a nested PCR. The outer PCR was performed with the primers 5'EGINT1 (SEQ ID NO 1) and 3'EGINT10 (SEQ ID NO 11) (ΔR-IN-vif construct) or 5'EGINT3 (SEQ ID NO 4) and 3'EGINT10 (SEQ ID NO 11) (ΔIN construct) (Expand™ High Fidelity PCR system), and 5 µl of the outer product was used for an inner PCR with primers 5'EGINT2 (SEQ ID NO 3) and 3'EGINT11 (SEQ ID NO 12) (ΔR-IN-vif construct) or 5'EGINT4 (SEQ ID NO 5) and 3'EGINT6 (SEQ ID NO 7) (ΔIN construct). In a second protocol the outer primers were identical as described above, the inner primers are 5'EGINT5 (SEQ ID NO 6) and 3'EGINT6 (SEQ ID NO 7). The amplicons can be used for genotyping and phenotyping. Cycling conditions for both PCRs are denaturation for 3 min at 95°C, followed by 30 cycles of 1 min 90°C, 30 sec 55°C, and 2 min 72°C. A final extension was performed at 72°C for 10 min. For recombination, PCR products are purified using the QiaQuick® 96 PCR BioRobot kit (Qiagen), according to the manufacturer's protocol. If the protocol starts from DNA containing the HIV material such as proviral DNA, the reverse transcriptase step is not needed. The nested approach is also not needed when starting from proviral DNA. The obtained amplicons were sequenced using the primers: In_seq1F (SEQ ID NO 17), In_seq2F (SEQ ID NO 18), In_seq3F (SEQ ID NO 19), IN_seq1R (SEQ ID NO 20), IN_seq2R (SEQ ID NO 21), and IN_seq3R (SEQ ID NO 22).
A ΔR-IN-vif or ΔIN deletion construct was generated by site-directed mutagenesis on the template pSV40HXB2D with the primers MUT-IN1 (SEQ ID NO 13) and MUT-IN2 (ΔR-IN-vif construct) (SEQ ID NO 14) or MUT-IN3 (SEQ ID NO 15) and MUT-IN4 (SEQ ID NO 16) (ΔIN construct) (protocol Site-directed mutagenesis kit, Stratagene). After DpnI digestion for removal of the methylated template DNA, the construct was digested with SmaI and ligated to circulize the plasmid. The plasmid was transformed into competent cells such as Top10 cells, and colonies were screened for the presence of the deletion construct. The IN-deletion construct was checked by sequence analysis with primers 5'EGINT1 (SEQ ID NO 1) or […] and 3'EGINT10 (SEQ ID NO 11) or 3'EGINT11 (SEQ ID NO 12). For use in recombination experiments, large-scale plasmid DNA preparations were linearized by SmaI digestion and recombined with PCR amplified integrase genes from wild type, mutant, or patient viruses. The plasmid containing the integrase deletion (ΔIN) has been deposited pSV40HXB2D-ΔIN. The sequence of said plasmid is 14377 nucleotides long. The ΔR-IN-vif deletion construct is 13975 nucleotides long. The pSV40HXB2D-ΔIN was deposited at the Belgian Coordinated Collections of Micro-Organisms located at the Universiteit Gent - Laboratorium voor Moleculaire Biologie on August 5, 2002 and the accession number is LMBP 4574.
Recombinant virus was produced by co-transfection by electroporation of the SmaI-linearized IN-deletion construct and the integrase amplicon into MT4 cells or MT4 cells equipped with an LTR driven reporter gene construct. Production of recombinant virus was evaluated by scoring the cytopathogenic effect (CPE) that is induced by HIV-infection of MT4 cells or by the LTR-driven reporter signal induced by HIV infection in MT4 reporter cells.

[1] = AVE 2, patient_146514, primer set 3
[2] = Human immunodeficiency virus 1, AVE 2, patient_146514, primer set 3

## c1cc(CN2CCCNCCNCCCNCC2)ccc1CN1CCCNCCNCCCNCC1 [AMD3100]
[1]
  fold change: 1,0
[2]
  EC50: 54.9 nM

## CC(C)CN(C[C@@H](O)[C@H](Cc1ccccc1)NC(=O)O[C@H]1CCOC1)S(=O)(=O)c1ccc(N)cc1 [APV, Amprenavir]
[1]
  fold change: 1,4
[2]
  EC50: 117 nM

## O=C(O)C1=CC(=C(c2ccc(O)c(C(=O)O)c2)c2ccc(O)c(C(=O)O)c2)C=CC1=O [ATA]
[1]
  fold change: 1,0
AVE 2, patient_146514, primer set 3, read-out: EC 50
  EC50: 1970 nM

## Cc1cn([C@H]2C[C@H](N=[N+]=[N-])[C@@H](CO)O2)c(=O)[nH]c1=O [AZT, Zidovudine]
[1]
  fold change: 0,9
[2]
  EC50: 150 nM

## Cc1cc(C#N)cc(C)c1Oc1nc(Nc2ccc(C#N)cc2)nc(N)c1Br [Compound 1, 4-[[6-amino-5-bromo-2-[(4-cyanophenyl)amino]-4-pyrimidinyl]oxy]-3,5-dimethyl-benzonitrile]
[1]
  EC50: 1.7 nM
  fold change: 1,7

## Cc1cc(C#N)cc(C)c1Oc1nc(Nc2ccc(C#N)cc2)nc(N)c1Br [Compound 2, 4-[[6-amino-5-bromo-2-[(4-cyanophenyl)amino]-4-pyrimidinyl]oxy]-3,5-dimethyl-Benzonitrile]
[1]
  EC50: 3.9 nM
  fold change: 1,3

## Nc1ccn([C@@H]2CS[C@H](CO)O2)c(=O)n1 [Compound 3TC, Lamivudine]
[1]
  fold change: 2,5
[2]
  EC50: 3490 nM

## CC(C)Oc1ccc(Cc2ccccc2)cc1C(=O)CC(=O)C(=O)O [Compound 4, 2-(1-methylethyloxy)-α,γ dioxo-5-(phenylmethyl)-benzenebutanoic acid]
[1]
  fold change: 1,0
[2]
  EC50: 280 nM

## O=c1[nH]cnc2c1ncn2[C@H]1CC[C@@H](CO)O1 [DDI, Didanosine]
[1]
  fold change: 2,2
[2]
  EC50: 10400 nM

## CC(C)(C)NC(=O)[C@@H]1CN(Cc2cccnc2)CCN1C[C@@H](O)C[C@@H](Cc1ccccc1)C(=O)N[C@H]1c2ccccc2C[C@H]1O [IDV, Indinavir]
[1]
  fold change: 1,3
[2]
  EC50: 56.4 nM

## Cc1ccnc2c1NC(=O)c1cccnc1N2C1CC1 [NVP, Nevirapine]
[1]
  fold change: 1,7
[2]
  EC50: 151 nM

## CC(C)c1nc(CN(C)C(=O)N[C@H](C(=O)N[C@@H](Cc2ccccc2)C[C@H](O)[C@H](Cc2ccccc2)NC(=O)OCc2cncs2)C(C)C)cs1 [RTV, ritonavir]
[1]
  fold change: 1,3
[2]
  EC50: 192 nM

## CC(C)(C)NC(=O)[C@@H]1C[C@@H]2CCCC[C@@H]2CN1C[C@@H](O)[C@H](Cc1ccccc1)NC(=O)[C@H](CC(N)=O)NC(=O)c1ccc2ccccc2n1 [SQV, Saquinavir]
[1]
  fold change: 1,7
[2]
  EC50: 34.5 nM
